Patent publication US9216208B2, “Topical ophthalmic peptide formulation” (BCN Peptides, S.A., priority 2009, dated 2015)

Legend:
[1] = tested on: Glial Fibrillar Protein (GFAP); experiment: Glial activation by GFAP immunofluorescence (confocal microscopy) in retina of diabetic rats; assay type: in vivo, Sprague Dawley rats; conditions: for glial cell activation (GFAP expression, confocal images): day 14, ganglion cell layer, FIG. 3; for GFAP fluorescence value: day 14, normalized to the analysed area (21705.33 μm^2), diabetic Group 2 6871±159, healthy Group 1 2095±26
Experimental: (§1) Streptozotocin (STZ), 60 mg/Kg, was administered to Sprague Dawley rats. The animals were divided in four groups as detailed in Table 1:
(§2) Two days after STZ was administered, animals were treated daily with one or two drops of vehicle (Group 2), eye drops of example 4 (Group 3) or eye drops of example 5 (Group 4) for additionally 14 days. Healthy control animals were only treated daily with one or two drops of vehicle (Group 1).
(§3) On day 14, the animals were sacrificed and ocular tissues paraffined. Glial activation and number of apoptotic cells were evaluated as markers of the first step in the development of diabetic retinopathy: retinal neurodegeneration [Carrasco et al., Diabetes Care; 2007, 30(11): 1-7].
Glial activation was determined analysing Glial Fibrillar Protein (GFAP) immunofluorescence by confocal microscopy. Ocular sections of 7 μm thickness were fixed on high adherent coverslips (Visionbiosystems, Newcastle Upon Tyne, UK). They were desparaffined, rehydrated and washed in phosphate buffer saline (PBS). Unspecific unions were blocked incubating the samples for 1 h in PBS 1% BSA (Bovine Serum Albumin) 0.5% Triton X-100. Thereafter, the primary rabbit anti-human GFAP antibody (Sigma, Madrid, Spain) diluted in the blocking buffer (1:100) was incubated for 36 h at 4° C. After three washings for 5 min with PBS, sections were incubated with a secondary antibody anti […] labelled with Alexa Fluor® 488 (Invitrogen, Eugene, Oreg.) for 1 h at room temperature. Labelled sections were washed and mounted with fluorescent medium containing 4,6-diamidino-2-phenylindole (DAPI) for staining cell nuclei (Vector Laboratories, Burlingame, Calif.). The sections positives for GFAP were captured in a confocal microscope (FV1000, Olympus. Hamburg, Germany) obtaining optical sections with a 488 nm laser for Alexa 488 and a 405 nm laser for DAPI. GFAP fluorescence was quantified in each image with the Fluoview ASW 1.4 software (Olympus, Hamburg, Germany). Results were normalized to the analysed area (21705.33 μm^2).

[2] = tested on: retinal cells of streptozotocin-induced diabetic rats; experiment: Degree of apoptosis of the retina by TUNEL in diabetic rats; assay type: in vivo, Sprague Dawley rats; conditions: for retinal degeneration (TUNEL positive cells, confocal images): after 14 days of treatment, FIG. 4; for % Apoptotic cells GCL: ganglion cell layer; for % Apoptotic cells GCL / % Apoptotic cells INL / % Apoptotic cells ONL / % Apoptotic cells RPE: 14 days of treatment; for % Apoptotic cells INL: inner nuclear layer; for % Apoptotic cells ONL: outer nuclear layer; for % Apoptotic cells RPE: retinal pigment epithelium
Experimental: as §1, §2, §3
The evaluation of the degree of apoptosis of the retina after 14 days of treatment was done by using the TUNEL (“Terminal Transferase dUTP Nick-End Labeling”) technique. The In Situ Cell Death Detection Kit (Roche Diagnostics, Mannheim, Germany) was used. Ocular sections were desparaffined, rehydrated and washed in PBS. Three confocal images (40×) corresponding to a 317.13 μm×317.13 μm surface were obtained for each section. The total number of nuclei and nuclei positive for TUNEL were quantified with the Image J software (http://rsbweb.nih.gov/ij). Staining with propidium iodide (PI) was done for examining the nucleus morphology and discard false positives. […] Retinal degeneration correlated with a higher number of apoptotic cells (brightest labeling means TUNEL positive) observed in streptozotocin-induced diabetic rats (Group 2).
The increment in the percentage of apoptotic cells is significant in diabetic rats (Group 2). Topical ocular treatment with somatostatin (Group 3) or octreotide (Group 4) reduced the number of apoptotic cells till control levels (Group 1).

[3] = tested on: streptozotocin-induced diabetic rats; experiment: Electroretinography after topical ocular treatment in diabetic rats; assay type: in vivo, Sprague Dawley rats; set-up: implicit time of the b-wave at 0 db compared to pretreatment: unit not given beside the values; conditions: for difference between the amplitude of the second OP (OP2) of the b-wave at 0 db / implicit time of the b-wave at 0 db compared to pretreatment: STZ 60 mg/kg rats; for difference between the amplitude of the second OP (OP2) of the b-wave at 0 db: FIG. 2; for implicit time of the b-wave at 0 db compared to pretreatment: after 14 days of treatment; for b-wave amplitude at −10 db and 0 db / b-wave amplitude at −30 db: compared to the diabetic group
Experimental: as §1, §2
Electroretinography is a technique used clinically to evaluate retinal function in diabetic retinopathy. Several parameters can be affected in early stages of the disease: implicit time, amplitude and oscillatory potentials [Tzekov et al., Survey of Ophthalmology, 1999, 44(1): 53-60]. The increment of the implicit time and diminishment of amplitude of the oscillatory potentials (OPs) are also observed in streptozotocin-induced diabetic rats [Hancok et al., Investigative Ophthalmology & Visual Science, 2004, 45(3): 1002-1008].

[4] = Evaluation of the concentration of topical ophthalmic somatostatin in the retina (Western blot); assay type: in vivo, C57BL/6 mice; conditions: eye drops of example 1, 1 drop of 5 μL twice a day for 5 days in right eye vs placebo in left eye; 2 hours after last dosage; Western blot densitometry
Experimental: Eight-week old C57BL/6 mice were used. The handling and care of the animals was carried out following the Institut de Recerca del Hospital Universitari Vall d'Hebron protocol and the European Economic Community and A.R.V.O. (Association for Research in Vision and Opthalmology) international guidelines (order 86/609/CEE). The animals were kept in individual cages in the animal facilities at a controlled temperature (20°) and humidity (60%), under constant cycles of light-darkness which last 12 hours and had free access to food and drink. The eye drops of somatostatin-14 from example 1 (1 drop of 5 μL) were administered to the right eye and the placebo (saline solution) to the left eye. Two drops were administered per day, one in the morning and another in the evening, for 5 days. The animals were euthanized by cervical dislocation under anesthetic 2 hours after the last dosage. Immediately afterwards the eyeballs were extracted and were frozen at −80° until handling. […] The quantity of somatostatin-14 in the retina was determined by Western blot. […] A densitometric analysis was carried out (Densitometer GS-800. Bio-Rad. Laboratories, Hercules, Calif., USA) and the results are expressed as arbitrary units. […] On control mice, who received the placebo in both eyes, no differences were detected in the concentration of somatostatin between both eyes.

## C[C@@H](O)[C@@H]1NC(=O)[C@H](CCCCN)NC(=O)[C@@H](Cc2c[nH]c3ccccc23)NC(=O)[C@H](Cc2ccccc2)NC(=O)[C@@H](NC(=O)[C@H](N)Cc2ccccc2)CSSC[C@@H](C(=O)N[C@H](CO)[C@@H](C)O)NC1=O [octreotide]
[1]
  glial cell activation (GFAP expression, confocal images): prevented glial cell activation
  GFAP fluorescence value: 1696±48
[2]
  retinal degeneration (TUNEL positive cells, confocal images): prevented retinal degeneration
  % Apoptotic cells GCL: 7%
  % Apoptotic cells INL: 0.1%
  % Apoptotic cells ONL: 5%
  % Apoptotic cells RPE: 11%
[3]; Left eye (2 drops per day)
  difference between the amplitude of the second OP (OP2) of the b-wave at 0 db: 55.1
  implicit time of the b-wave at 0 db compared to pretreatment: 1.1
[3]; Right eye (1 drop per day)
  difference between the amplitude of the second OP (OP2) of the b-wave at 0 db: 45.5
  implicit time of the b-wave at 0 db compared to pretreatment: 8.8
[3]
  b-wave amplitude at −10 db and 0 db: effective only at the highest dose
  b-wave amplitude at −30 db: prevented the diminishment

## C[C@H](N)C(=O)NCC(=O)N[C@H]1CSSC[C@@H](C(=O)O)NC(=O)[C@H](CO)NC(=O)[C@H]([C@@H](C)O)NC(=O)[C@H](Cc2ccccc2)NC(=O)[C@H]([C@@H](C)O)NC(=O)[C@H](CCCCN)NC(=O)[C@H](Cc2c[nH]c3ccccc23)NC(=O)[C@H](Cc2ccccc2)NC(=O)[C@H](Cc2ccccc2)NC(=O)[C@H](CC(N)=O)NC(=O)[C@H](CCCCN)NC1=O [somatostatin, somatostatin-14]
[1]
  glial cell activation (GFAP expression, confocal images): prevented glial cell activation
  GFAP fluorescence value: 2514±90
[2]
  retinal degeneration (TUNEL positive cells, confocal images): prevented retinal degeneration
  % Apoptotic cells GCL: 14%
  % Apoptotic cells INL: 1%
  % Apoptotic cells ONL: 3%
  % Apoptotic cells RPE: 6%
[4]
  amount of somatostatin in the retina: greater in the treated eye on both animals
[3]; Left eye (2 drops per day)
  difference between the amplitude of the second OP (OP2) of the b-wave at 0 db: 68.7
  implicit time of the b-wave at 0 db compared to pretreatment: 4.9
[3]; Right eye (1 drop per day)
  difference between the amplitude of the second OP (OP2) of the b-wave at 0 db: 44.8
  implicit time of the b-wave at 0 db compared to pretreatment: 9.0
[3]
  b-wave amplitude at −10 db and 0 db: prevented the diminishment
  b-wave amplitude at −30 db: prevented the diminishment
